Source: patent publication US20090042773A1, “P13 kinase gamma inhibitors for the treatment of anaemia” (priority 2004, published 2009)

Columns and labels:
[1] = system: K562 erythroleukemia cells; conditions: Neri et al., Cellular Signalling 14 (2002) 21; cited from earlier work
[2] = biological target: T1, Human recombinant GST-PI3Kδ (Homo sapiens, UniProt O00329)
T1 sequence (O00329 1-1044): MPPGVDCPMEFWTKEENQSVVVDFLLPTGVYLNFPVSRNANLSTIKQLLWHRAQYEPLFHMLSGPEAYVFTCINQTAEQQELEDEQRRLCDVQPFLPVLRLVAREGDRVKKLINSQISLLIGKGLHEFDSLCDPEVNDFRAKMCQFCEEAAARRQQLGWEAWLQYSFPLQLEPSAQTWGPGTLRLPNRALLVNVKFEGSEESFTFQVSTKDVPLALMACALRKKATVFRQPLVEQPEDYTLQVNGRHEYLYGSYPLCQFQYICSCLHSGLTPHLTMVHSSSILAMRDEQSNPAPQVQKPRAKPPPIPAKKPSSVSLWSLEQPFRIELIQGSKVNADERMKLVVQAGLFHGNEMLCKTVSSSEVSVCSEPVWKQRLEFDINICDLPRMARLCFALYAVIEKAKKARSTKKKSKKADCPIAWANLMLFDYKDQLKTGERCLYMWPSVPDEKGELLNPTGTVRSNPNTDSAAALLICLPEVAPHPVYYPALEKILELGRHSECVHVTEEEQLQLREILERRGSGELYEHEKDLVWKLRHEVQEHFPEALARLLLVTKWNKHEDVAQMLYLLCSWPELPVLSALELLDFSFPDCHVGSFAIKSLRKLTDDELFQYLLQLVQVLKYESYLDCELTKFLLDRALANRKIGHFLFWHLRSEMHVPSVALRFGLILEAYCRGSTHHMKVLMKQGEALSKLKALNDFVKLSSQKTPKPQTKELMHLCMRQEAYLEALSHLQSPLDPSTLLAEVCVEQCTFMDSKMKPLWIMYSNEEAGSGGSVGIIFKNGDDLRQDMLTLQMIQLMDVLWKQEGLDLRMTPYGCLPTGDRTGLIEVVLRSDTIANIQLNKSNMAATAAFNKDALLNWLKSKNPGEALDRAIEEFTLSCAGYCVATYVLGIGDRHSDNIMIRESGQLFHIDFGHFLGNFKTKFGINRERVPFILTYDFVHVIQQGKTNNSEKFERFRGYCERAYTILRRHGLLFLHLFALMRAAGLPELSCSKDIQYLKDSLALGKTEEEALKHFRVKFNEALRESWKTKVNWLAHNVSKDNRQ

[3] = biological target: Human recombinant GST-PI3Kγ (Homo sapiens, UniProt P48736)
[4] = biological target: Human recombinant GST-PI3Kα (Homo sapiens, UniProt P42336)
[5] = system: Mobilized CD34 positive stem cells; assay: EPO induced erythrocyte formation (stem cell culture, colony assay, flow cytometry); format: cell-based
From the text: b) EPO Induced Erythrocyte Formation:
Investigation of the effect of PI3K inhibitors on the differentiation of red cell population, but also on the expansion of undifferentiated stem cells. Two different culture systems. A and B, were explored.
Culture System A (Containing No IL-3):
Differentiation of bone-marrow derived stem cells into the red cell line only. Semi-optimal systems in respect of the expansion of colony forming units, because of the lack of IL3 and other early acting growth factors.
The culture conditions are: IMDM-culture medium, 30% pre-selected fetal calf serum, 1% BSA, Glutamine 40 ug/ml iron saturated transferin, 10−6 Mol Mercaptoethanol, 10 ng/ml SCF, 100 U/ml IL6, 7 U Epo.
Culture System B (Containing IL-3):
Colony forming unit assay. […]
Colony forming units and the expression of Glycophorin A (marker) on the cell surface were used as markers for stem cell erythropoesis. Additionally, the presence of the cell surface antigen CD34 was also monitored to assess the differentiation status of the in vitro expanded cell lineage.
Relative expansion rate of GlyA-positive cells: At day 0, the stage of differentiation only few, if any cells, are GlyA positive. […] The expansion rate is calculated as the absolute number of GlyA-positive cells at the time point of interest divided by the absolute number of GlyA-positive cells in the starting material.

CD34+ progenitor cells = conditions: Myklebust et al., Experimental Hematology 30 (2002), 990; cited from earlier work

Chain of Human recombinant GST-PI3Kγ (P48736 whole entry): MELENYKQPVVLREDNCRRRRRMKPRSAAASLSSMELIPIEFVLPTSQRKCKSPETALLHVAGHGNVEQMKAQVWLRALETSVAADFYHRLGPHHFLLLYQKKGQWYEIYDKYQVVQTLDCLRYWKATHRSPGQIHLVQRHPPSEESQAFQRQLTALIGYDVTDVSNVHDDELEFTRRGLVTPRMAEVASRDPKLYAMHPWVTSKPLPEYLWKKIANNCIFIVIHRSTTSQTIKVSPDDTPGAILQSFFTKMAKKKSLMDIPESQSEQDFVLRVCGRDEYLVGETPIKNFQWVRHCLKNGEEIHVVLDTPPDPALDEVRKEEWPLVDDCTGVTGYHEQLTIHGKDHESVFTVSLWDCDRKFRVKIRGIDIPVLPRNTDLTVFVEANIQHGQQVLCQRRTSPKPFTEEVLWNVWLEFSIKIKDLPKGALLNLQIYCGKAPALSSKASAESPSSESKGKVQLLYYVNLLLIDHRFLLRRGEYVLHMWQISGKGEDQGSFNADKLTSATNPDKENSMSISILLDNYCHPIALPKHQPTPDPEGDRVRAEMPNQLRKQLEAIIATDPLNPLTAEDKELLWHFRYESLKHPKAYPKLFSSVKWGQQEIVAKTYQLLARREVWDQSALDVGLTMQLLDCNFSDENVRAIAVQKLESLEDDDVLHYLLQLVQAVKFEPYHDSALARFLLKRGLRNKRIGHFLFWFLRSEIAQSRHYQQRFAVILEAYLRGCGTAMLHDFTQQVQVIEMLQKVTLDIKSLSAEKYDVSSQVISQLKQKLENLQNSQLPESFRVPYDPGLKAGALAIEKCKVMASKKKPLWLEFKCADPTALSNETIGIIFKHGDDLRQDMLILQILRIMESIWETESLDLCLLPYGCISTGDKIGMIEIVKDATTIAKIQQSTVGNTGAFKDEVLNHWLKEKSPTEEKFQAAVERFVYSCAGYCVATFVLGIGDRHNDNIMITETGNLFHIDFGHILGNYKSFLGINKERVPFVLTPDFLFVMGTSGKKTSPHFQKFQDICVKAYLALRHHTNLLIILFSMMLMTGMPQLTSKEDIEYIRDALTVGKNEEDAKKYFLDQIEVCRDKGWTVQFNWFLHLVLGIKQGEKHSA
Chain of Human recombinant GST-PI3Kα (P42336 whole entry): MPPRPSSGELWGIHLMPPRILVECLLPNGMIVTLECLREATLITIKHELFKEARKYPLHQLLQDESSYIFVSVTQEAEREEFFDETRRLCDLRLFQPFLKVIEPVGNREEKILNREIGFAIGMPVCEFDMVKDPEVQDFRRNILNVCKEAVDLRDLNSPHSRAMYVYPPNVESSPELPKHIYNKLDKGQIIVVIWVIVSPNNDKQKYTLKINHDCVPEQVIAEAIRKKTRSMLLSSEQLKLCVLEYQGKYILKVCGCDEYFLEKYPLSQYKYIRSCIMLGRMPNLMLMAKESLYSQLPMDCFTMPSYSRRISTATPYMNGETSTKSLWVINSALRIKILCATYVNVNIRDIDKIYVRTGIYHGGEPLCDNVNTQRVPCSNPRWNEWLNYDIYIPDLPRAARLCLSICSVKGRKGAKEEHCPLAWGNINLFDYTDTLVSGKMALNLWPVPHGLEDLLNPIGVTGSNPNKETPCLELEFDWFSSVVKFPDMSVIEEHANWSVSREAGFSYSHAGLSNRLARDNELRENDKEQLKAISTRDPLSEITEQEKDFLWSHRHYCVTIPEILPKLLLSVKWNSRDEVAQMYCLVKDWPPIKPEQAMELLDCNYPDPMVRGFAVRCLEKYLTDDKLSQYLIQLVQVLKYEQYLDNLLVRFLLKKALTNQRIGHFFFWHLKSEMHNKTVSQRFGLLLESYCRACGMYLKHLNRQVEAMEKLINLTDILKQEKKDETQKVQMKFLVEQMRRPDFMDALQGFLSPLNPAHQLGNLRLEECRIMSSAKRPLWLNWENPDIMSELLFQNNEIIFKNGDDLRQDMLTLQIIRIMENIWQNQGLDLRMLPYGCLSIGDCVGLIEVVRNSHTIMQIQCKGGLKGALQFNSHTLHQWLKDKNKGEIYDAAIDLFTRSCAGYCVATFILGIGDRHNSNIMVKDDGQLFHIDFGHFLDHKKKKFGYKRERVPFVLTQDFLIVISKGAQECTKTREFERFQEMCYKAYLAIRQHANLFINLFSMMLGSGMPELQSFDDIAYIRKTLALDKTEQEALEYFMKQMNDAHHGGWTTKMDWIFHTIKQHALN

Compound	IC50 [2] [nM]	IC50 [3] [nM]	IC50 [4] [nM]	other results
COC[C@H]1OC(=O)c2coc3c2[C@@]1(C)C1=C(C3=O)[C@@H]2CCC(=O)[C@@]2(C)C[C@H]1OC(C)=O [Wortmannin, wortmannin]				effect on EPO induced erythroid differentiation of K562 cells [1]: prevents K562 erythroleukemia cells from EPO induced erythroid differentiation
O=C(O)C=Cc1coc2ccc(C=C3SC(=O)NC3=O)cc12 [Example 9, 3-[5-(2,4-Dioxo-thiazolidin-5-ylidenemethyl)benzofuran-3-yl]-acrylic acid]	2480	8	32	
N#CN=C1NC(=O)C(=Cc2ccc3c(c2)OCO3)S1 [Example 14, 5-Benzo[1,3]dioxol-5-ylmethylene-4-oxo-thiazolidin-2-ylidene-cyanamide]	1170	21	231	
CN1C(=O)COc2ccc(C=C3SC(=O)NC3=O)cc21 [Example 6, 5-[(4-methyl-3-oxo-3,4-dihydro-2H-1,4-benzoxazin-6-yl)methylene]-1,3-thiazolidine-2,4-dione]		30	170	
O=C1NC(=O)C(=Cc2ccc3nonc3c2)S1 [Example 12, 5-Benzo[1,2,5]oxadiazol-5-ylmethylene-thiazolidine-2,4-ione]	2730	35	370	
Cc1coc2ccc(C=C3SC(=O)NC3=O)cc12 [Example 8, 5-(3-Methyl-benzofuran-5-ylmethylene)-thiazolidine-2,4-dione]	1970	30	135	
O=C1NC(=S)SC1=Cc1ccc2c(c1)OCO2 [Example 2, 5-(1,3-benzodioxol-5-ylmethylene)-2-thioxo-1,3-thiazolidin-4-one]		115	450	
O=C1NC(=O)C(=Cc2ccc3c(c2)OCO3)S1 [Example 1, 5-(1,3-benzodioxol-5-ylmethylene)-1,3-thiazolidine-2,4-dione]	1700	70	250	increase of the expansion of nucleated cells over the control ([5]; in 13 days, compound added at day 1): 4 fold; cell proliferation ([5]; same culture, 13 days): not enhanced
O=c1cc(N2CCOCC2)oc2c(-c3ccccc3)cccc12 [LY294002]				effect on EPO induced erythropoiesis from CD34+ progenitor cells (CD34+ progenitor cells): inhibit EPO induced erythropoiesis

Continued by falling IC50 [3], values first:

IC50 [2] [nM]	IC50 [3] [nM]	IC50 [4] [nM]	Compound	other results
	710		N=C1NC(=O)C(=Cc2ccc3c(c2)OCO3)S1 [Example 7, 5-(1,3-benzodioxol-5-ylmethylene)-2-imino-1,3-thiazolidin-4-one]	
	590	2100	O=C1NC(=O)C(=Cc2ccc3c(c2)NCCO3)S1 [Example 10, 5-(3,4-Dihydro-2H-benzo[1,4]oxazin-6-ylmethylene)-thiazolidine-2,4-dione]	
4870	316	1370	O=C1NC(=O)C(=Cc2ccc3c(c2)C(=O)c2ccccc2C3=O)S1 [Example 4, 5-[(9,10-dioxo-9,10-dihydroanthracen-2-yl)methylene]-1,3-thiazolidine-2,4-dione]	
	290	1200	O=C1NC(=O)C(=Cc2ccc3cc(F)oc3c2)S1 [Example 13, 5-(2-Fluoro-benzofuran-6-ylmethylene)-thiazolidine-2,4-dione]	
10000	95	460	Nc1noc2ccc(C=C3SC(=O)NC3=O)cc12 [Example 11, 5-(3-Amino-benzo[d]isoxazol-5-ylmethylene)thiazolidine-2,4-dione]	
	50	310	O=C1NC(=O)C(=Cc2ccc3c(c2)OCCO3)S1 [Example 3, 5-(2,3-dihydro-1,4-benzodioxin-6-ylmethylene)-1,3-thiazolidine-2,4-dione]	
